Like-named read-outs stand apart in the source and are kept apart here.
Key:
[1] = biological target: T1, recombinant human Eg5 motor domain protein (Homo sapiens, UniProt P52732); experiment: Eg5 enzyme inhibition test (2), ATPase activity; assay type: biochemical; details: 30° C. for 30 minutes, concentration-dependent inhibition
T1 construct: A plasmid expressing the motor domain of human Eg5 was constructed; made in house; host or cells: Escherichia coli BL21 (DE3)
T1 sequence (P52732 18-359 limits assumed): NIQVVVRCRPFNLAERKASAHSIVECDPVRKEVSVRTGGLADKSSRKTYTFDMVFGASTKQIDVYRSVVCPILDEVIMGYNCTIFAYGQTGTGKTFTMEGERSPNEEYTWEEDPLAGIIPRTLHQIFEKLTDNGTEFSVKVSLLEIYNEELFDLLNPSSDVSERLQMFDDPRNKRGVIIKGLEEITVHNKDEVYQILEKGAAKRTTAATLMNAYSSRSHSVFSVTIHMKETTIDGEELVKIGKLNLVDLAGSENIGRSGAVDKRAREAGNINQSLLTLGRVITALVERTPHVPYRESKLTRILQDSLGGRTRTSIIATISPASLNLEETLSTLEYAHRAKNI
Experimental: A recombinant human Eg5 motor domain protein was prepared by referring to the literature [Biochemistry, Vol. 35, p. 2365 (1996)]. A plasmid expressing the motor domain of human Eg5 was constructed, and transformed into Escherichia coli BL21 (DE3). The transformant was cultured at 25° C, and when the OD600 reached 0.74, isopropyl-β-D-thiogalactoside was added at a final concentration of 0.5 mmol/L. The transformant was further cultured for 4 hours, and then the culture medium was centrifuged to collect the cells. The cells were suspended in a buffer and ultrasonicated, and then the sonicated solution was centrifuged to recover the supernatant. The supernatant was purified by cation exchange column chromatography to obtain a partially purified sample. Furthermore, the partially purified sample was purified by gel filtration column chromatography to obtain a finally purified sample.
Measurement of the ATPase activity of Eg5 was carried out by referring to the literatures [EMBO Journal, Vol. 13, p. 751 (1994); Proc. Natl. Acad. Sci. USA, Vol. 89, p. 4884 (1992)]. The following two kinds of solutions were prepared: Solution A consisting of 25 mmol/L piperazine N,N′-bis(ethanesulfonate) (PIPES)/KOH (pH 6.8), 1 mmol/L ethylene glycol-bis(2-aminoethyl ether)tetraacetic acid (EGTA), 2 mmol/L MgCl2, 1 mmol/L dithiothreitol (DTT), 5 μmol/L paclitaxel, 167 μg/mL bovine serum albumin (BSA), 41.7 μg/mL tubulin (Cytoskeleton, Catalog No. TL238), 333 μmol/L MESG substrate (2-amino-6-mercapto-7-methylpurine riboside) (Molecular Probes, Catalog Number E-6646), 1.67 U/mL purine nucleoside phosphorylase (Molecular Probe, Catalog No. E-6646) and 1.33 μg/mL of the human Eg5 motor domain purified sample, and Solution B consisting of 25 mmol/L piperazine N,N′-bis(ethanesulfonate) (PIPES)/KOH (pH 6.8), 1 mmol/L ethylene glycol-bis(2-aminoethyl ether)tetraacetic acid (EGTA), 2 mmol/L MgCl2, 1 mmol/L dithiothreitol (DTT), 5 μmol/L paclitaxel and 2.5 mmol/L ATP. Solution A was dispensed into each well of a 96-well plate as 45 μL portions. Solution B was used to serially dilute a test compound. The diluted test compound solutions in a volume of 30 μL were mixed with Solution A added beforehand in each well of the 96-well plate to start the enzymatic reaction. The enzymatic reaction was performed at 30° C. for 30 minutes. Absorbance at 360 nm, which serves as an index of the ATPase activity, was measured using a plate reader (Molecular Device, SpectraMax 340PC^384). The absorbance observed in the presence of Eg5 and absence of the test compound was defined 100%, and the absorbance observed in the absence of both Eg5 and the test compound was defined 0%. The relative activity was calculated to calculate IC50 value.

[2] = system: HCT 116 human colon carcinoma cells; experiment: Antiproliferative activity against HCT 116 human colon carcinoma cells (XTT); assay type: cell-based
Experimental: HCT 116 cells (ATCC No.: CCL-247) were placed on a 96-well microtiter plate (Nunc, 167008) at a density of 1×10^3 cells/well. The plate was incubated in a 5% CO2 incubator at 37° C. for 24 hours, and then to the plate was added test compounds diluted stepwise to 100 μL/well in total, and the plate was further incubated in a 5% CO2 incubator at 37° C. for 72 hours. To the culture medium, the XTT (sodium 3′-[1-(phenylaminocarbonyl)-3,4-tetrazolium]-bis(4-methoxy-6-nitro)benzenesulfonic acid hydrate) labeling mixture (Roche Diagnostics, 1465015) was dispensed in 50 μL/well portions, then the plate was incubated in a 5% CO2 incubator at 37° C. for 1 hour, and the absorbance was measured at 490 nm and 655 nm with a microplate spectrophotometer (Bio-Rad, Model 550). The inhibitory activity against cell proliferation was shown as GI50, a concentration of compound at which induces 50% inhibition of cell proliferation.
GI50 calculation method: The value (difference in absorbance) was calculated by subtracting the absorbance at 655 nm from the absorbance at 490 nm of each well. The difference in absorbance obtained from the cells untreated with a test compound was defined as 100%, and compared with the difference in absorbance obtained from the cells treated with the solution of the compound in the known concentration, and thereby the concentration of the compound of 50% inhibition against cell proliferation was calculated to obtain GI50.

[3] = HCT 116 cells, 72 hours incubation, XTT, 50% inhibition of cell proliferation, read-out: GI50

In the case of `CC(=O)N1N=C(c2ccccc2F)SC1(CCNC(=O)CCCN(C)C)c1ccccc1` (stereo not drawn) [Compound 61], the IC50 [1] is reported as ≤ 10000 nM and the GI50 [2, 3] is reported as < 100 nM.

In the case of `CC(=O)N1N=C(c2cccc(F)c2)SC1(C)c1ccccc1` (stereo not drawn) [Compound 24], the IC50 [1] is reported as ≤ 10000 nM and the GI50 [2, 3] is reported as 220 nM.

`CC(=O)N1N=C(c2ccco2)SC1(C)c1ccccc1` (stereo not drawn) [Compound 1] was tested, and the IC50 [1] was ≤ 10000 nM and the GI50 ([2]; HCT-116, 72 h) was 530 nM.

In the case of `CC(=O)N1N=C(c2ccccc2F)SC1(CNS(=O)(=O)CCN)c1ccccc1` (stereo not drawn) [Compound 49], the IC50 [1] is reported as ≤ 10000 nM and the GI50 [2, 3] is reported as < 100 nM.

`CC(=O)N1N=C(c2ccccc2F)SC1(CCCN1CCN(C)CC1)c1ccccc1` (stereo not drawn) [Compound 62] was tested, and the IC50 [1] was ≤ 10000 nM and the GI50 [2, 3] was 160 nM.

In the case of `CC(=O)N1N=C(C(=O)NC(C)(C)C)SC1(C)c1ccccc1` (stereo not drawn) [Compound 44], the IC50 [1] is reported as ≤ 10000 nM and the GI50 [2, 3] is reported as 410 nM.

`CC(=O)N1N=C(C#CC(C)(C)C)SC1(CNS(C)(=O)=O)c1ccccc1` (stereo not drawn) [Compound 20] was tested, and the IC50 [1] was ≤ 10000 nM and the GI50 [2, 3] was 200 nM.

In the case of `CC(=O)N1N=C(c2ccccc2)SC1(CNS(C)(=O)=O)c1ccccc1` (stereo not drawn) [Compound 10], the IC50 [1] is reported as ≤ 10000 nM and the GI50 [2, 3] is reported as 180 nM.

`CC(=O)N1N=C(c2cccn2C(=O)OC(C)(C)C)SC1(C)c1ccccc1` (stereo not drawn) [Compound 5] was tested, and the IC50 [1] was ≤ 10000 nM and the GI50 [2, 3] was 170 nM.

For `CC(=O)N1N=C(c2ccccc2F)SC1(C)c1ccccc1` (stereo not drawn) [Compound 22], the IC50 [1] was ≤ 10000 nM and the GI50 [2, 3] was 83 nM.

For `CC(=O)N1N=C(C(=O)NC(C)(C)C)SC1(CNS(=O)(=O)CCN(C)C)c1ccccc1` (stereo not drawn) [Compound 68], the IC50 [1] was ≤ 10000 nM and the GI50 [2, 3] was 190 nM.

For `CC(=O)N1N=C(c2ccccc2F)SC1(CNC(=O)CN)c1ccccc1` (stereo not drawn) [Compound 55], the IC50 [1] was ≤ 10000 nM and the GI50 [2, 3] was < 100 nM.

— patent US20070112044A1, “Thiadiazoline derivative” (Kyowa Hakko Kogyo Co., Ltd., priority 2003, published 2007)
